Values quoted from earlier work, collected in patent publication US20230117508A1, “ENHANCEMENT OF CAMP SIGNALING AS A COMBINATION DRUG STRATEGY FOR THE TREATMENT OF PSYCHIATRIC AND NEUROLOGICAL DISORDERS IN WHICH DEPRESSIVE, ANHEDONIA, MOTIVATION-RELATED OR COGNITION-RELATED DYSFUNCTION EXISTS” (ALTO NEUROSCIENCE, INC., priority 2021, published 2023).

What was measured:
[1] = humans
[2] = in vivo
[3] = small clinical trials in depression
[4] = not given; remark: listed apart in the source

Which “antidepressant-like effects in animals” value does the source give for `CCOC(=O)COc1ccc2c(c1)C[C@@H](NC[C@H](O)c1cccc(Cl)c1)CC2` [amibegron] here?
The value was “promising antidepressant-like effects”.

What about the “efficacy in two acute treatment clinical trials for depression” value [1] of the same compound?
Its value is “failed to show efficacy”.

For `O=C(Nc1c(Cl)cncc1Cl)c1ccc(OC(F)F)c(OCC2CC2)c1` [Roflumilast], which antidepressant effect [2] is on record?
Its antidepressant effect is “no evidence of an antidepressant effect”.

And the cognitive effects [2]?
The cognitive effects was “pro-cognitive effects”.

Which “improvement in depression compared with TCA medications” value [3] does the source give for `COc1ccc(C2CNC(=O)C2)cc1OC1CCCC1` (stereo not drawn) [rolipram] here?
The value was “In none of these studies, however, did rolipram produce a greater improvement in depression than the TCA medications”.

And the “phenotypes of treated mice” value [4]?
Its value is “antidepressant and pro-cognitive phenotypes”.
